Read-outs that look alike come from different tables or passages of the source.
What was measured:
HCT116 cells = experiment: MTT assay; assay type: cell-based; details: Homo sapiens, HCT116 cells, 72 hours
How it was run: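 Cells plated one day before dosing, then exposed to compound 72 h at 37 °C, 5% CO2. MTT at 0.5 mg/ml final for 4 h, solubilized in DMF/SDS buffer pH 4.7; OD converted to cell number from a standard growth curve.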

[1] = target: T1, cloned recombinant human HDAC-1 (Homo sapiens, UniProt Q13547); experiment: Human HDAC-1 enzyme inhibition, Assay 1 ([3H]-acetylated histone substrate, scintillation counting); assay type: biochemical
T1 construct: made in house; host or cells: Baculovirus insect cell expression system
T1 sequence (Q13547 whole entry): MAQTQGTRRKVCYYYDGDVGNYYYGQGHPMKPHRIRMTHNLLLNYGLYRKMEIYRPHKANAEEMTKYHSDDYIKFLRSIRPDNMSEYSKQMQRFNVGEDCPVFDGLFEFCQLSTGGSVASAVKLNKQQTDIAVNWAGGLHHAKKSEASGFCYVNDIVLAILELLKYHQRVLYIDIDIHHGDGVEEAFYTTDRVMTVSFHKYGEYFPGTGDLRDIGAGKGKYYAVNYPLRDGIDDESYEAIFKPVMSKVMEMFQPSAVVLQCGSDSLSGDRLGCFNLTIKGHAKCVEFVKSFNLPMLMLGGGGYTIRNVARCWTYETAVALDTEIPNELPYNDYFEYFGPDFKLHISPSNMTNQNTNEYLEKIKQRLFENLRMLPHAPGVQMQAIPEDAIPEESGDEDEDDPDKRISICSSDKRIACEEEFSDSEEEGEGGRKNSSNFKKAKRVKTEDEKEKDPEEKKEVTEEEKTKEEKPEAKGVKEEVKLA
How it was run: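 Recombinant human HDAC-1 from baculovirus-infected insect cells, preincubated with compound 30 min at 4° C. before reaction. Released [3H]-acetic acid extracted with ethyl acetate and counted by scintillation. IC50 taken from dose-response curves as concentration giving half-maximal inhibition.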

[2] = tested on: acetylated histone H-4 in T24 human bladder cancer cells; experiment: Histone H4 acetylation in whole cells by immunoblots; assay type: cell-based; details: 16 h
How it was run: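 T24 cells were treated with HDAC inhibitors for 16 h; […] total histone protein was resolved by SDS/PAGE and immunoblotted with polyclonal anti-acetylated H4 antibody. ECL detection, with signal quantified by densitometry.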

[3] = Table 5F, read-out: Human HDAC-1 IC50
[4] = T-24, Table 5F, read-out: H4 Ac (T24) EC50
[5] = Table 5b, read-out: Human HDAC-1 IC50
[6] = T-24, Table 5b, read-out: H4Ac (T24) EC50
[7] = Table 5d, read-out: HDAC-1 IC50
[8] = T-24, Table 5d, read-out: H4Ac(T24) EC50

Structure (SMILES)	IC50 (HCT116 cells; HCT-116, 72 h, Table 5F)	IC50 [1, 3]	EC50 [2, 4]	IC50 (HCT116 cells; HCT-116, Table 5d)	IC50 [1, 7]	EC50 [2, 8]	other results
Nc1ccccc1NC(=O)c1ccc(CNc2ncc(Br)s2)cc1 [Cpd 467, N-(2-Amino-phenyl)-4-[(5-bromo-thiazol-2-ylamino)-methyl]-benzamide]	400 nM	4000 nM	2000 nM	–	–	–	–
Nc1ccccc1NC(=O)c1ccc(CNc2cc(-c3ccccc3)[nH]n2)cc1 [Cpd 468, N-(2-Amino-phenyl)-4-[(5-phenyl-1H-pyrazol-3-ylamino)-methyl]-benzamide]	8000 nM	2000 nM	< 1000 nM	–	–	–	–
Nc1nc(NCCCc2ccccc2)nc(NCc2ccc(C(=O)Nc3ccccc3N)cc2)n1 [Cpd 470]	–	–	–	–	–	–	IC50 (HCT116 cells; HCT-116, 72 h, Table 5b): 700 nM; IC50 [1, 5]: 2000 nM; EC50 [2, 6]: 3000 nM
Nc1ccccc1NC(=O)c1ccc(CNc2nc(NCCc3ccccc3)nc(NC3CC3)n2)cc1 [Cpd 471]	–	–	–	–	–	–	IC50 (HCT116 cells; HCT-116, 72 h, Table 5b): 1000 nM; IC50 [1, 5]: 400 nM; EC50 [2, 6]: 3000 nM
Nc1ccccc1NC(=O)c1ccc(CNc2nc(NCC3CC3)nc(NC3Cc4ccccc4C3)n2)cc1 [Cpd 472]	–	–	–	–	–	–	IC50 (HCT116 cells; HCT-116, 72 h, Table 5b): 1000 nM; IC50 [1, 5]: 3000 nM; EC50 [2, 6]: 1000 nM
COCCNc1nc(NCCc2ccccc2)nc(NCc2ccc(C(=O)Nc3ccccc3N)cc2)n1 [Cpd 474]	–	–	–	–	–	–	IC50 (HCT116 cells; HCT-116, 72 h, Table 5b): 1000 nM; IC50 [1, 5]: 3000 nM; EC50 [2, 6]: 1000 nM
COc1ccc(CCNc2nc(NCc3ccc(C(=O)Nc4ccccc4N)cc3)nc(NC3CC3)n2)cc1 [Cpd 476]	–	–	–	–	–	–	IC50 (HCT116 cells; HCT-116, 72 h, Table 5b): 1000 nM; IC50 [1, 5]: 2000 nM; EC50 [2, 6]: 2000 nM
Nc1ccccc1NC(=O)/C=C/c1ccc(NCCNc2ncccn2)nc1 [Cpd 521, N-(2-Amino-phenyl)-3-{6-[2-(pyrimidin-2-ylamino)-ethylamino]-pyridin-3-yl}-acrylamide]	–	–	–	2000 nM	5000 nM	10000 nM	–
COc1cc(N(CCN2CCOCC2)Cc2ccc(/C=C/C(=O)Nc3ccccc3N)cc2)cc(OC)c1OC [Cpd 523, N-(2-Amino-phenyl)-3-(4-{[(2-morpholin-4-yl-ethyl)-(3,4,5-trimethoxy-phenyl)-amino]-methyl}-phenyl)-acrylamide]	–	–	–	6000 nM	8000 nM	10000 nM	–
Nc1ccccc1NC(=O)/C=C/c1ccc(NCc2cccc(OCC(F)(F)F)c2)nc1 [Cpd 525, N-(2-Amino-phenyl)-3-{6-[3-(2,2,2-trifluoro-ethoxy)-benzylamino]-pyridin-3-yl}-acrylamide]	–	–	–	4000 nM	3000 nM	5000 nM	–
CN1CCN(c2ccc(NCc3ccc(/C=C/C(=O)Nc4ccccc4N)cc3)cc2C(F)(F)F)CC1 [Cpd 526]	–	–	–	800 nM	2000 nM	1000 nM	–
Nc1ccccc1NC(=O)/C=C/c1ccc(CNc2ccc(Cc3ccncc3)cc2)cc1 [Cpd 531, N-(2-Amino-phenyl)-3-{4-[(4-pyridin-4-ylmethyl-phenylamino)-methyl]-phenyl}-acrylamide]	–	–	–	2000 nM	–	20000 nM	IC50 ([1]; HDAC-1 IC50, Table 5d): 3000 nM
CSc1ccc(NCc2ccc(/C=C/C(=O)Nc3ccccc3N)cc2)cc1 [Cpd 556, N-(2-Amino-phenyl)-3-{4-[(4-methylsulfanyl-phenylamino)-methyl]-phenyl}acrylamide]	–	–	–	400 nM	1000 nM	15000 nM	–
COc1cc(NCc2ccc(/C=C/C(=O)Nc3cscc3N)cc2)cc(OC)c1OC [Cpd 570]	–	–	–	600 nM	6000 nM	2000 nM	–
COc1cc(NCc2ccc(C(=O)Nc3cscc3N)cc2)cc(OC)c1OC [Cpd 574, N-(4-Amino-thiophen-3-yl)-4-[(3,4,5-trimethoxy-phenylamino)-methyl]-benzamide]	700 nM	13000 nM	3000 nM	–	–	–	–
COc1ccc2[nH]c(SCc3ccc(C(=O)Nc4cscc4N)cc3)nc2c1 [Cpd 575, N-(4-Amino-thiophen-3-yl)-4-(5-methoxy-1H-benzoimidazol-2-ylsulfanyl-methyl)-benzamide]	200 nM	2000 nM	1000 nM	–	–	–	–
Cc1ccc(C#N)c(OCc2ccc(C(=O)Nc3ccccc3N)cc2)n1 [Cpd 577, N-(2-Amino-phenyl)-4-(3-cyano-6-methyl-pyridin-2-yloxymethyl)-benzamide]	500 nM	2000 nM	2000 nM	–	–	–	–
CC(=O)Nc1sc(Cc2ccc(C(=O)Nc3ccccc3N)cc2)cc1C(N)=O [Cpd 579, 2-Acetylamino-5-[4-(2-amino-phenyl-carbamoyl)-benzyl]-thiophene-3-carboxamide]	500 nM	2000 nM	1000 nM	–	–	–	–
CNc1nc2ccc(NCc3ccc(C(=O)Nc4ccccc4N)cc3)cc2n1C [Cpd 580]	300 nM	4000 nM	< 1000 nM	–	–	–	–
COc1ccc2[nH]c(SCc3ccc4oc(C(=O)Nc5ccccc5N)cc4c3)nc2c1 [Cpd 591, 5-(5-Methoxy-1H-benzoimidazol-2-ylsulfanyl-methyl)-benzofuran-2-carboxylic acid (2-amino-phenyl)amide]	300 nM	4000 nM	< 1000 nM	–	–	–	–
COc1cc(CNc2ccc3oc(C(=O)Nc4ccccc4N)cc3c2)cc(OC)c1OC [Cpd 592, 5-(3,4,5-Trimethoxy-benzylamino)-benzofuran-2-carboxylic acid (2-amino-phenyl)-amide]	400 nM	5000 nM	< 1000 nM	–	–	–	–

More lines, main results first:

IC50 (HCT116 cells; HCT-116, 72 h, Table 5F)	IC50 [1, 3]	EC50 [2, 4]	IC50 (HCT116 cells; HCT-116, Table 5d)	IC50 [1, 7]	EC50 [2, 8]	Structure (SMILES)	other results
–	–	–	9000 nM	4000 nM	10000 nM	COc1cc(OC)nc(NCc2ccc(/C=C/C(=O)Nc3ccccc3N)cc2)n1 [Cpd 492, N-(2-Amino-phenyl)-3-{4-[(4,6-dimethoxy-pyrimidin-2-ylamino)-methyl]-phenyl}-acrylamide]	–
–	–	–	2000 nM	> 25000 nM	> 25000 nM	COc1cc(N(Cc2ccc(/C=C/C(=O)Nc3ccccc3N)cc2)Cc2cc3ccccc3[nH]2)cc(OC)c1OC [Cpd 499, N-(2-Amino-phenyl)-3-{4-([(1 H-indol-2-ylmethyl)-(3,4,5-trimethoxy-phenyl)-amino]-methyl}-phenyl)-acrylamide]	–
–	–	–	2000 nM	4000 nM	5000 nM	COc1cc(NC(C)c2ccc(/C=C/C(=O)Nc3ccccc3N)cc2)cc(OC)c1OC (stereo not drawn) [Cpd 518, N-(2-Amino-phenyl)-3-{4-[1-(3,4,5-trimethoxy-phenylamino)-ethyl]-phenyl}-acrylamide]	–
–	–	–	2000 nM	3000 nM	3000 nM	Nc1ccccc1NC(=O)/C=C/c1ccc(NCc2cccc(O)c2)nc1 [Cpd 524, N-(2-Amino-phenyl)-3-[6-(3-hydroxy-benzylamino)-pyridin-3-yl]-acrylamide]	–
–	–	–	2000 nM	11000 nM	> 25000 nM	COc1cc(/C=C\c2ccc(/C=C/C(=O)Nc3ccccc3N)cc2)cc(OC)c1OC [Cpd 537, N-(2-Amino-phenyl)-3-{4-[2-(3,4,5-trimethoxy-phenyl)-vinyl]-phenyl}-acrylamide]	–
400 nM	7000 nM	1000 nM	–	–	–	Nc1cscc1NC(=O)c1ccc(CNc2nc3ccc(OCCN4CCOCC4)cc3s2)cc1 [Cpd 573, N-(4-Amino-thiophen-3-yl)-4-{[6-(2-morpholin-4-yl-ethoxy)-benzothiazol-2-ylamino]-methyl}-benzamide]	–
300 nM	3000 nM	1000 nM	–	–	–	Cc1sc2ncn(Cc3ccc(C(=O)Nc4ccccc4N)cc3)c(=O)c2c1C [compound 259, N-(2-Amino-phenyl)-4-(5,6-dimethyl-4-oxo-4H-thieno[2,3-d]pyrimidin-3-ylmethyl)-benzamide]	–

— patent publication US7868204B2, “Inhibitors of histone deacetylase” (MethylGene Inc., priority 2001, dated 2011)
